Measured values published in PubChem BioAssay AID342 (DTP/NCI, 2004).
Several values for one entry are separate records, joined by “and”; a condition that tells them apart may be missing. Equal entries are not always repeated.

System: Swiss mice, Sarcoma 180 sc, mean tumor weight T/C
Assay: NCI In Vivo Anticancer Drug Screen. Data for tumor model Sarcoma 180 (subcutaneous) in Swiss mice
Conditions: endpoint: mean tumor weight, higher = larger tumour
Summary of the method: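 Tumor-bearing mice, transplantable tumor; readout survival or tumor size; result = T/C, treated vs vehicle control.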

[1] = dose: 10.0 mg/kg/injection, schedule: Q01DX007 (ip), vehicle: water

`C/C=C1/CN(C)C2Cc3c([nH]c4ccccc34)C(c3cc4[nH]c5c(c4cc3OC)CCN3CC4CC(C(C)O)C3C5(C(=O)OC)C4)CC1C2C(=O)OC` (stereo not given) was tested, and the T/C [1] was 54 % of control, the T/C (dose: 20.0 mg/kg/injection, schedule: Q01DX007 (ip), vehicle: water) was 97 % of control and the T/C (dose: 30.0 mg/kg/injection, schedule: Q01DX007 (ip), vehicle: water) was 87 % of control. The T/C (dose: 40.0 mg/kg/injection, schedule: Q01DX007 (ip), vehicle: water) was 80 % of control.
With `O=C(O)c1[nH]c(=O)[nH]c(=O)c1F` the T/C (dose: 3.35 mg/kg/injection, schedule: Q#A X014 (ip), vehicle: methylcellulose (MC)) was 62 % of control, the T/C (dose: 5.0 mg/kg/injection, schedule: Q#A X014 (ip), vehicle: methylcellulose (MC)) was 49 % of control and the T/C (dose: 7.5 mg/kg/injection, schedule: Q#A X014 (ip), vehicle: methylcellulose (MC)) was 46 % of control. The T/C (dose: 11.25 mg/kg/injection, schedule: Q#A X014 (ip), vehicle: methylcellulose (MC)) was 22 % of control.
For `COc1cc2c3c(c4cc(OC)c(OC)cc4c2cc1OC)CN1CCC[C@H]1C3`, the T/C [1] was 70 % of control, the T/C (dose: 12.0 mg/kg/injection, schedule: Q01DX007 (ip), vehicle: water) was 81 % of control and the T/C (dose: 18.0 mg/kg/injection, schedule: Q01DX007 (ip), vehicle: water) was 42 % of control.
`COC(=O)C1(N)CCCC1` was tested, and the T/C (dose: 60.0 mg/kg/injection, schedule: Q01DX007 (ip), vehicle: carboxymethylcellulose (CMC)) was 59 % of control, the T/C (dose: 90.0 mg/kg/injection, schedule: Q01DX007 (ip), vehicle: carboxymethylcellulose (CMC)) was 42 % of control and the T/C (dose: 135.0 mg/kg/injection, schedule: Q01DX007 (ip), vehicle: carboxymethylcellulose (CMC)) was 33 % of control. For the same compound, the T/C (dose: 202.0 mg/kg/injection, schedule: Q01DX007 (ip), vehicle: carboxymethylcellulose (CMC)) was 20 % of control.
With `O=C(Nc1ccc([N+](=O)[O-])cc1)Nc1ccc([N+](=O)[O-])cc1` (tested in a mixture with another compound) the T/C (dose: 37.0 mg/kg/injection, schedule: Q#A X014 (ip), vehicle: methylcellulose (MC)) was 59 % of control, the T/C (dose: 55.5 mg/kg/injection, schedule: Q#A X014 (ip), vehicle: methylcellulose (MC)) was 60 % of control and the T/C (dose: 187.5 mg/kg/injection, schedule: Q#A X014 (ip), vehicle: methylcellulose (MC)) was 53 % of control and 50 % of control and 52 % of control. The T/C (dose: 250.0 mg/kg/injection, schedule: Q#A X014 (ip), vehicle: methylcellulose (MC)) was 44 % of control.
With `CN(C)N=Nc1n[nH]nc1C(N)=O` the T/C (dose: 31.0 mg/kg/injection, schedule: Q01DX007 (ip), vehicle: carboxymethylcellulose (CMC)) was 70 % of control, the T/C (dose: 62.0 mg/kg/injection, schedule: Q01DX007 (ip), vehicle: carboxymethylcellulose (CMC)) was 84 % of control and the T/C (dose: 125.0 mg/kg/injection, schedule: Q01DX007 (ip), vehicle: carboxymethylcellulose (CMC)) was 43 % of control.
In the case of `CCSc1nc(Cl)cc(Sc2nc(N)nc3nc[nH]c23)n1`, the T/C (dose: 9.0 mg/kg/injection, schedule: Q01DX007 (ip), vehicle: other) is reported as 75 % of control, the T/C (dose: 18.0 mg/kg/injection, schedule: Q01DX007 (ip), vehicle: methylcellulose (MC)) is reported as 91 % of control and the T/C (dose: 18.0 mg/kg/injection, schedule: Q01DX007 (ip), vehicle: other) is reported as 116 % of control. For the same compound, the T/C (dose: 36.0 mg/kg/injection, schedule: Q01DX007 (ip), vehicle: methylcellulose (MC)) was 95 % of control, the T/C (dose: 72.0 mg/kg/injection, schedule: Q01DX007 (ip), vehicle: methylcellulose (MC)) was 76 % of control and the T/C (dose: 72.0 mg/kg/injection, schedule: Q01DX007 (ip), vehicle: other) was 32 % of control. The T/C (dose: 124.0 mg/kg/injection, schedule: Q01DX007 (ip), vehicle: carboxymethylcellulose (CMC)) was 73 % of control, the T/C (dose: 144.0 mg/kg/injection, schedule: Q01DX007 (ip), vehicle: methylcellulose (MC)) was 44 % of control and 57 % of control and the T/C (dose: 188.0 mg/kg/injection, schedule: Q01DX007 (ip), vehicle: carboxymethylcellulose (CMC)) was 44 % of control. For the same compound, the T/C (dose: 277.0 mg/kg/injection, schedule: Q01DX007 (ip), vehicle: carboxymethylcellulose (CMC)) was 47 % of control, the T/C (dose: 281.0 mg/kg/injection, schedule: Q01DX007 (ip), vehicle: carboxymethylcellulose (CMC)) was 76 % of control and the T/C (dose: 288.0 mg/kg/injection, schedule: Q01DX007 (ip), vehicle: methylcellulose (MC)) was 52 % of control and 61 % of control. For the same compound, the T/C (dose: 422.0 mg/kg/injection, schedule: Q01DX007 (ip), vehicle: carboxymethylcellulose (CMC)) was 35 % of control and 40 % of control, the T/C (dose: 435.0 mg/kg/injection, schedule: Q01DX007 (ip), vehicle: methylcellulose (MC)) was 100 % of control and the T/C (dose: 630.0 mg/kg/injection, schedule: Q01DX007 (ip), vehicle: carboxymethylcellulose (CMC)) was 37 % of control. For the same compound, the T/C (dose: 945.0 mg/kg/injection, schedule: Q01DX007 (ip), vehicle: carboxymethylcellulose (CMC)) was 47 % of control.
In the case of `CC12CCC3C(CCC4CC=CCC43C)C1CCC2=O` (stereo not given), the T/C (dose: 31.0 mg/kg/injection, schedule: Q01DX007 (sc), vehicle: steriod suspending solution) is reported as 102 % of control, the T/C (dose: 62.5 mg/kg/injection, schedule: Q01DX007 (sc), vehicle: steriod suspending solution) is reported as 105 % of control and the T/C (dose: 125.0 mg/kg/injection, schedule: Q01DX007 (sc), vehicle: steriod suspending solution) is reported as 107 % of control and 123 % of control. For the same compound, the T/C (dose: 250.0 mg/kg/injection, schedule: Q01DX007 (sc), vehicle: steriod suspending solution) was 95 % of control and 96 % of control.
With `N#Cc1ccc(S(N)(=O)=O)cc1` the T/C (dose: 30.0 mg/kg/injection, schedule: Q01DX007 (ip), vehicle: alkali diluted with saline) was 76 % of control, the T/C (dose: 33.0 mg/kg/injection, schedule: Q01DX007 (ip), vehicle: other) was 70 % of control and the T/C (dose: 44.0 mg/kg/injection, schedule: Q01DX007 (ip), vehicle: alkali diluted with saline) was 71 % of control. The T/C (dose: 49.0 mg/kg/injection, schedule: Q01DX007 (ip), vehicle: other) was 68 % of control, the T/C (dose: 66.0 mg/kg/injection, schedule: Q01DX007 (ip), vehicle: alkali diluted with saline) was 54 % of control and the T/C (dose: 74.0 mg/kg/injection, schedule: Q01DX007 (ip), vehicle: other) was 59 % of control. The T/C (dose: 100.0 mg/kg/injection, schedule: Q01DX007 (ip), vehicle: alkali diluted with saline) was 39 % of control, the T/C (dose: 111.0 mg/kg/injection, schedule: Q01DX007 (ip), vehicle: other) was 45 % of control and 60 % of control and the T/C (dose: 166.0 mg/kg/injection, schedule: Q01DX007 (ip), vehicle: other) was 34 % of control. For the same compound, the T/C (dose: 250.0 mg/kg/injection, schedule: Q01DX007 (ip), vehicle: other) was 13 % of control.
With `CC(=O)OCC(=O)[C@@]1(O)CC[C@H]2[C@@H]3CCC4=CC(=O)C=C[C@]4(C)[C@H]3[C@@H](O)C[C@@]21C` the T/C (dose: 13.3 mg/kg/injection, schedule: Q01DX007 (sc), vehicle: steriod suspending solution) was 73 % of control, the T/C (dose: 20.0 mg/kg/injection, schedule: Q01DX007 (sc), vehicle: steriod suspending solution) was 62 % of control and the T/C (dose: 30.0 mg/kg/injection, schedule: Q01DX007 (sc), vehicle: steriod suspending solution) was 51 % of control. For the same compound, the T/C (dose: 45.0 mg/kg/injection, schedule: Q01DX007 (sc), vehicle: steriod suspending solution) was 23 % of control.
In the case of `CCC(CC)C(O)CCCN(C)C` (stereo not given), the T/C (dose: 100.0 mg/kg/injection, schedule: Q01DX007 (ip), vehicle: saline) is reported as 103 % of control, the T/C (dose: 200.0 mg/kg/injection, schedule: Q01DX007 (ip), vehicle: saline) is reported as 95 % of control and the T/C (dose: 400.0 mg/kg/injection, schedule: Q01DX007 (ip), vehicle: saline) is reported as 75 % of control.
`NC(=O)Nc1n[se]nc1C(=O)O` was tested, and the T/C (dose: 20.0 mg/kg/injection, schedule: Q01DX007 (ip), vehicle: saline) was 111 % of control and the T/C (dose: 30.0 mg/kg/injection, schedule: Q01DX007 (ip), vehicle: saline) was 75 % of control.
With `CCCCCCCCCCCCCC1=C(O)C(=O)C(CC2=C(O)C(=O)C(CCCCCCCCCCCCC)=C(O)C2=O)=C(O)C1=O` the T/C (dose: 50.0 mg/kg/injection, schedule: Q01DX007 (ip), vehicle: carboxymethylcellulose (CMC)) was 66 % of control and 80 % of control, the T/C (dose: 100.0 mg/kg/injection, schedule: Q01DX007 (ip), vehicle: carboxymethylcellulose (CMC)) was 73 % of control and the T/C (dose: 200.0 mg/kg/injection, schedule: Q01DX007 (ip), vehicle: carboxymethylcellulose (CMC)) was 101 % of control.
With `CC(=O)Nc1cc2c(cc1[N+](=O)[O-])-c1ccccc1C2O` (stereo not given) the T/C (dose: 98.0 mg/kg/injection, schedule: Q01DX007 (ip), vehicle: other) was 100 % of control, the T/C (dose: 148.0 mg/kg/injection, schedule: Q01DX007 (ip), vehicle: other) was 120 % of control and the T/C (dose: 333.0 mg/kg/injection, schedule: Q01DX007 (ip), vehicle: other) was 65 % of control and 67 % of control. For the same compound, the T/C (dose: 333.0 mg/kg/injection, schedule: Q01DX007 (ip), vehicle: saline) was 81 % of control, the T/C (dose: 500.0 mg/kg/injection, schedule: Q01DX007 (ip), vehicle: other) was 25 % of control and the T/C (dose: 500.0 mg/kg/injection, schedule: Q01DX007 (ip), vehicle: saline) was 93 % of control. The T/C (dose: 750.0 mg/kg/injection, schedule: Q01DX007 (ip), vehicle: saline) was 64 % of control.
`O=C(NP(=O)(N1CC1)N1CC1)OCc1ccccc1` was tested, and the T/C (dose: 1.5 mg/kg/injection, schedule: Q#A X014 (ip), vehicle: saline) was 82 % of control, the T/C (dose: 3.0 mg/kg/injection, schedule: Q#A X014 (ip), vehicle: saline) was 81 % of control and the T/C (dose: 6.0 mg/kg/injection, schedule: Q#A X014 (ip), vehicle: saline) was 36 % of control. For the same compound, the T/C (dose: 12.0 mg/kg/injection, schedule: Q#A X014 (ip), vehicle: saline) was 1 % of control.
